# Results taken from paper PMC7206119, “RIP1 inhibition blocks inflammatory diseases but not tumor growth or metastases” (Cell Death and Differentiation, 2019).
# What was measured:
# Assay in all cases: biochemical
# Set-up in all cases: DiscoverX kinase panel, active-site competition binding (KINOMEscan type), percent of control at one concentration
# Conditions in all cases: competition binding, percent of control
# PRKD2 = PRKD2 (Homo sapiens, UniProt Q9BZL6)
# CDK9 = CDK9 (Homo sapiens, UniProt P50750)
# OSR1 = target: T1, OSR1 (Homo sapiens, UniProt O95747)
# T1 construct: gene OXSR1
# LZK = target: T2, LZK (Homo sapiens, UniProt O43283)
# T2 construct: gene MAP3K13
# BRAF = BRAF (Homo sapiens, UniProt P15056)
# [1] = target: T3, RPS6KA4(Kin.Dom.1-N-terminal) (Homo sapiens, UniProt O75676)
# T3 construct: Kin.Dom.1-N-terminal
# MEK4 = target: T4, MEK4 (Homo sapiens, UniProt P45985)
# T4 construct: gene MAP2K4
# PIK3C2B = PIK3C2B (Homo sapiens, UniProt O00750)
# TYRO3 = TYRO3 (Homo sapiens, UniProt Q06418)
# AKT2 = AKT2 (Homo sapiens, UniProt P31751)
# p38-alpha = target: T5, p38-alpha (Homo sapiens, UniProt Q16539)
# T5 construct: gene MAPK14
# MLK3 = target: T6, MLK3 (Homo sapiens, UniProt Q16584)
# T6 construct: gene MAP3K11
# ERBB3 = ERBB3 (Homo sapiens, UniProt P21860)
# PFPK5(P.falciparum) = target: T7, PFPK5(P.falciparum) (Plasmodium falciparum, UniProt P61075)
# T7 construct: gene MAL13P1.279
# ULK1 = ULK1 (Homo sapiens, UniProt O75385)
# CSNK1G3 = CSNK1G3 (Homo sapiens, UniProt Q9Y6M4)
# MAP3K2 = MAP3K2 (Homo sapiens, UniProt Q9Y2U5)
# PLK2 = PLK2 (Homo sapiens, UniProt Q9NYY3)
# FGR = FGR (Homo sapiens, UniProt P09769)
# SRPK3 = SRPK3 (Homo sapiens, UniProt Q9UPE1)
# HCK = HCK (Homo sapiens, UniProt P08631)
# Sequence of HCK (P08631 whole entry): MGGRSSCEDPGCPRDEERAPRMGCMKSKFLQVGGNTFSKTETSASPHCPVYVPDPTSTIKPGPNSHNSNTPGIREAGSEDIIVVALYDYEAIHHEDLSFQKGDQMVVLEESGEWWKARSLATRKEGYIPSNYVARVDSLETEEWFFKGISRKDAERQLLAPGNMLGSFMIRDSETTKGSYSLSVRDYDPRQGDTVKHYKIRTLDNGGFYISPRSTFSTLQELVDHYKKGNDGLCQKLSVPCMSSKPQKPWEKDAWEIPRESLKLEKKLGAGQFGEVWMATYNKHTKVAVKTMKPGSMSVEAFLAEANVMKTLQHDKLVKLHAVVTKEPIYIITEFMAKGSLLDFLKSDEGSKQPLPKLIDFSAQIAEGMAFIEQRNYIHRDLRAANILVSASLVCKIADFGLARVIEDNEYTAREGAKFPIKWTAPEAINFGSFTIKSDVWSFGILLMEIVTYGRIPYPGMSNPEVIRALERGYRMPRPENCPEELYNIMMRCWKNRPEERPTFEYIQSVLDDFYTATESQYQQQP
# Sequence of MAP3K2 (Q9Y2U5 whole entry): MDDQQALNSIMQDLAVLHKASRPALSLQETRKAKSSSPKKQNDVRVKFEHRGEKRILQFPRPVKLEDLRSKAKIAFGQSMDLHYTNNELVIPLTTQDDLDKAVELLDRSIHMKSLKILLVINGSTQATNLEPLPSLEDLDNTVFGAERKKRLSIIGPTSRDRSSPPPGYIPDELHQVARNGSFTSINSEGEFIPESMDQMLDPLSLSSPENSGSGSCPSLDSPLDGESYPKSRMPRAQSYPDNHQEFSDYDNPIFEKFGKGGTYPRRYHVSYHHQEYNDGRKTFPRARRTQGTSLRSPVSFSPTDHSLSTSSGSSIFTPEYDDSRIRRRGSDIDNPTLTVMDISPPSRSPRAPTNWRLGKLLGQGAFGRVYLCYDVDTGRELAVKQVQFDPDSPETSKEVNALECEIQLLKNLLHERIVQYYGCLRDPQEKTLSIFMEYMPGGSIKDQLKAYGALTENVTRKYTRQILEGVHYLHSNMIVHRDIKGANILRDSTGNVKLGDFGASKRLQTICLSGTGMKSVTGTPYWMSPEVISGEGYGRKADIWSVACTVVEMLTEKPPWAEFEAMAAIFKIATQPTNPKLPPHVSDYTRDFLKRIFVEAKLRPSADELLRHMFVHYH
# Sequence of PRKD2 (Q9BZL6 whole entry): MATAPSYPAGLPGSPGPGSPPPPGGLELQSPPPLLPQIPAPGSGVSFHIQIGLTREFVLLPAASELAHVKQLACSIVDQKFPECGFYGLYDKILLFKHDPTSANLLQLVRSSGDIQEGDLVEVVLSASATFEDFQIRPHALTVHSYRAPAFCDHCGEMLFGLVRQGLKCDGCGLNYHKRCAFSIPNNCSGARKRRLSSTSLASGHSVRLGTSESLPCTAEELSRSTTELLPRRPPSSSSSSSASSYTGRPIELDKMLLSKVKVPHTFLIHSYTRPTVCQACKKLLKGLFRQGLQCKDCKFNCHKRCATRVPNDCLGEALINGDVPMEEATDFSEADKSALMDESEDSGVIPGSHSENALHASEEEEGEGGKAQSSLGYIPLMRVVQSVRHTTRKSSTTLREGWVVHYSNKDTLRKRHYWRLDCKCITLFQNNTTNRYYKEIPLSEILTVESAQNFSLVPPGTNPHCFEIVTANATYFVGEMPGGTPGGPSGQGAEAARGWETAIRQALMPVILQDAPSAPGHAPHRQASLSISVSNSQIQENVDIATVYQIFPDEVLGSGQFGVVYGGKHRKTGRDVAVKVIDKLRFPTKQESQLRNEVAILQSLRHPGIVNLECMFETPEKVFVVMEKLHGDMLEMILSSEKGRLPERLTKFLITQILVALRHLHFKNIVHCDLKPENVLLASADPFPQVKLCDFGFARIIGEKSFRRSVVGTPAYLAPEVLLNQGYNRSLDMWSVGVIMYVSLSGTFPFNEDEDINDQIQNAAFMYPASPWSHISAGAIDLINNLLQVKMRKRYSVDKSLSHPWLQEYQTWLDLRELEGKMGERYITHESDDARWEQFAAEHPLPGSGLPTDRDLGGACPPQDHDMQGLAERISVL
# T6 sequence (Q16584 whole entry): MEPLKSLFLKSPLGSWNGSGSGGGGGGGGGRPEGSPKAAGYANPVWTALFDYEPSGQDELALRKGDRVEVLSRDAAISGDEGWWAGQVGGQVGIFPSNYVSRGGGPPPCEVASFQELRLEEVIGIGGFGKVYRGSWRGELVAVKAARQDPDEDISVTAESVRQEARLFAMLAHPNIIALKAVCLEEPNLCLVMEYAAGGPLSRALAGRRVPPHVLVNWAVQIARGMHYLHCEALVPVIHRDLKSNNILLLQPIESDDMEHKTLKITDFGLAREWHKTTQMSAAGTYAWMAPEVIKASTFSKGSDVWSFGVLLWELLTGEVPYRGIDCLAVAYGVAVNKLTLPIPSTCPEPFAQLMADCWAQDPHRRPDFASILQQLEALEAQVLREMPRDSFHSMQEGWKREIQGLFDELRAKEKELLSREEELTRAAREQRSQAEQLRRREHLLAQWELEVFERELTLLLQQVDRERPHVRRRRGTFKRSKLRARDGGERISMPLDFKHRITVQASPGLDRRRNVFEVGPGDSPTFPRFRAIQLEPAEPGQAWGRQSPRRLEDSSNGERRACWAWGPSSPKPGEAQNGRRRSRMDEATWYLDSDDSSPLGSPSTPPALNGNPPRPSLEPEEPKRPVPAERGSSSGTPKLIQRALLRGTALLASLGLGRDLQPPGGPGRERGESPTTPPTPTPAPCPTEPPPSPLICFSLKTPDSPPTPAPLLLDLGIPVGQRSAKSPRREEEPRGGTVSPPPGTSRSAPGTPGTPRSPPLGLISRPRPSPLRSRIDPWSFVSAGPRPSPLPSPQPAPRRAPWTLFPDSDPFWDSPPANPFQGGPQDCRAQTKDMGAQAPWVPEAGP
# Sequence of BRAF (P15056 whole entry): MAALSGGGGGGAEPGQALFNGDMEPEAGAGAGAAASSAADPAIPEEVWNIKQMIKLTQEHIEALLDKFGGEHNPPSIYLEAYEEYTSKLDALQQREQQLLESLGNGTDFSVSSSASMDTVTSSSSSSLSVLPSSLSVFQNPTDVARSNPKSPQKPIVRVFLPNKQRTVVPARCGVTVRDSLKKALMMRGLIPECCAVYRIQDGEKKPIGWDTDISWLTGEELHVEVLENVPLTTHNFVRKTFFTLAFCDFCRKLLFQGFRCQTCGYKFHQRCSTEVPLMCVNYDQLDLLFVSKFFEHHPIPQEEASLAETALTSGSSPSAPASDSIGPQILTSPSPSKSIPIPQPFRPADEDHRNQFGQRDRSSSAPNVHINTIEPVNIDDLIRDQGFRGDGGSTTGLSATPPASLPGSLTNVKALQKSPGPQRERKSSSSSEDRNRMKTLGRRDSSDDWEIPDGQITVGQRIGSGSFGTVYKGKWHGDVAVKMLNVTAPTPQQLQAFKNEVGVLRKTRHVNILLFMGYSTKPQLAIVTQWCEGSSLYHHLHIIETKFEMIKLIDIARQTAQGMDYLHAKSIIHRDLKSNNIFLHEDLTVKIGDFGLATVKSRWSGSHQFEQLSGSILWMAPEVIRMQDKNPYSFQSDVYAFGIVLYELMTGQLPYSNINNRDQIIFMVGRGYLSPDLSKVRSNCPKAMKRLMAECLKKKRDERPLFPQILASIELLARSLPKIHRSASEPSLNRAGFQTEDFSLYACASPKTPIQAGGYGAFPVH
# T2 sequence (O43283 whole entry): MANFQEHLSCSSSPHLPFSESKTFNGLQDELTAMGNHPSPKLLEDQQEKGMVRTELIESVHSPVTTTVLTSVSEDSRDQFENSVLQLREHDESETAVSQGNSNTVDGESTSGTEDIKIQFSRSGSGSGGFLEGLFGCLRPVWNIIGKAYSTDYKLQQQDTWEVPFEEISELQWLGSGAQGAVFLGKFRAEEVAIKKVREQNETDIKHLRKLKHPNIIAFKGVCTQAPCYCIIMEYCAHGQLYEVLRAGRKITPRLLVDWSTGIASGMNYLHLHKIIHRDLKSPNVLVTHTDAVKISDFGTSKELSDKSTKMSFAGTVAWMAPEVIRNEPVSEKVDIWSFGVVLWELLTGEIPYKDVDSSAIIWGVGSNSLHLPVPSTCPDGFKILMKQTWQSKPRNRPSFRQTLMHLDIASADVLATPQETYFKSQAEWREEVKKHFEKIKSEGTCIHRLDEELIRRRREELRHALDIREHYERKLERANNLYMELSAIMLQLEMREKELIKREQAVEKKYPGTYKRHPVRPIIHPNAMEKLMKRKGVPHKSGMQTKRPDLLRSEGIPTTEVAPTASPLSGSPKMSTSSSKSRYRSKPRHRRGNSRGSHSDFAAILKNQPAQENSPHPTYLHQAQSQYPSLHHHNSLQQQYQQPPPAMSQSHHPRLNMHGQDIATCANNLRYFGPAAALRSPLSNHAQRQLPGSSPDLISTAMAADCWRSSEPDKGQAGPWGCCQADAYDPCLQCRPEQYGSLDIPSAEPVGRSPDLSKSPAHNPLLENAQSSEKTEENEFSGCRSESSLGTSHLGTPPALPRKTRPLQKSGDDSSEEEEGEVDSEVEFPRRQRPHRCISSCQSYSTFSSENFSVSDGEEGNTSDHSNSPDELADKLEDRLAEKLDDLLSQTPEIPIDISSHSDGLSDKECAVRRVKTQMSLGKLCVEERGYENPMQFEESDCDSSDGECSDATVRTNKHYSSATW
# T5 sequence (Q16539 whole entry): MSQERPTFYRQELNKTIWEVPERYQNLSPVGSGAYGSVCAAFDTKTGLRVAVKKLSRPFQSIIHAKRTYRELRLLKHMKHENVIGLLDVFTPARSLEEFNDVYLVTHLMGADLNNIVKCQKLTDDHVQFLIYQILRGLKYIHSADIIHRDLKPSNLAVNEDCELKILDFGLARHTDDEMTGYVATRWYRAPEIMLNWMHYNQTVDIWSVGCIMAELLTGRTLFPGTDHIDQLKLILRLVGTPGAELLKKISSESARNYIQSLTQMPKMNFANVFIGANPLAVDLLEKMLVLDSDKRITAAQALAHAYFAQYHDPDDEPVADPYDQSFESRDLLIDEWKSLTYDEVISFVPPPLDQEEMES
smiles,measurement,setting,value
"COc1cc2c(cn1)N(C)C(=O)[C@@H](NC(=O)c1nc3n(n1)[C@H](c1ccccc1)CC3)CC2 [GNE684, (S)-N-((S)-7-methoxy-1-methyl-2-oxo-2,3,4,5-tetrahydro-1H-pyrido[3,4-b]azepin-3-yl)-5-phenyl-6,7-dihydro-5H-pyrrolo[1,2-b][1,2,4]triazole-2-carboxamide]",remaining binding at 10 µM,PRKD2,100%
same,remaining binding at 10 µM,CDK9,97%
same,remaining binding at 10 µM,OSR1,93%
same,remaining binding at 10 µM,LZK,98%
same,remaining binding at 10 µM,BRAF,98%
same,remaining binding at 10 µM,[1],75%
same,remaining binding at 10 µM,MEK4,88%
same,remaining binding at 10 µM,PIK3C2B,93%
same,remaining binding at 10 µM,TYRO3,97%
same,remaining binding at 10 µM,AKT2,92%
same,remaining binding at 10 µM,p38-alpha,95%
same,remaining binding at 10 µM,MLK3,100%
same,remaining binding at 10 µM,ERBB3,96%
same,remaining binding at 10 µM,PFPK5(P.falciparum),100%
same,remaining binding at 10 µM,ULK1,98%
same,remaining binding at 10 µM,CSNK1G3,95%
same,remaining binding at 10 µM,MAP3K2,76%
same,remaining binding at 10 µM,PLK2,97%
same,remaining binding at 10 µM,FGR,94%
same,remaining binding at 10 µM,SRPK3,100%
same,remaining binding at 10 µM,HCK,93%
